Test system: colored probe product
Test: enzymatic creatinine assay with limited chemical probe (Amplex Red): stabilization of probe signal by antioxidants
Assay type: biochemical
Details: antioxidants added at different concentrations; chemical probe at low concentration
Text: The existing assay is a purely enzymatic approach that translates the concentration of creatinine into a colorimetric change of varying intensity. It contains two enzymes. The first enzyme, creatininase, catalyzes the conversion of creatinine to creatine. The second enzyme, creatinase, catalyzes creatine to sarcosine. This bioconversion aspect of the assay can be maintained in both of the embodiments. In the existing assay, the sarcosine is then oxidized by sarcosine oxidase, generating hydrogen peroxide in the process. The fluorogenic peroxidase substrate Amplex Red, hereafter referred to as the “probe”, interacts with the generated hydrogen peroxide in the presence of horseradish peroxidase to produce the red-fluorescent product resorufin (see Yamkamon et al. Simultaneous determination of sarcosine and its related metabolites by gas chromatography-tandem mass spectrometry for prostate cancer diagnosis, EXCLI Journal, 2018). Resorufin accumulation leads to a visible color change with a linear response over physiological serum creatinine concentrations. However, there is significant day-to-day variability of unknown origin that affects the amplitude of the output, thus requiring (per manufacturer's instructions) a calibration curve to be run with every sample or batch of samples and complicating field deployment.
In certain embodiments of the disclosed invention, the existing assay can be taken in its entirety and titrated down the amount of probe (fluorogenic peroxidase substrate, Amplex Red) so as to produce a sample-specific calibration curve. The probe concentration that corresponds with specific creatinine concentrations in calibration tests can be first identified using defined chemical mixtures and then implemented in a serum sample matrix to validate the sample-specific calibration curve. […] This method yields a set of reactions to which patient sample can be added, and regardless of the sample levels of creatinine, the calibration spots will all correspond to defined levels of creatinine. The reaction with excess probe can then be visually compared to the calibration spots to determine the creatinine level. In particular, a shift from colorless to red may be useful for a presence-absence or binary diagnostic test. For more accurate monitoring of intensity of color, a plate reader (e.g., spectrophotometer or fluorescence reader) can be used.
Furthermore, in order to reduce the patient-to-patient variability in readouts, also known as matrix effects, where the molecule being measured may appear to be at a different concentration only due to interferences from other constituents of the solution, the inventors identified that the appropriate reagent to limit was not the enzymes in the chemical assay, but rather the chemical probe. However, when the concentration of the chemical probe was reduced to a low level to enable the calibration approach, a side reaction happened where probe that has been transformed from colorless into colored form undergoes a second reaction that brings it back to a colorless form. This made the signal “decay” and thus would lead to an underreporting of the target molecule's concentration.

Q: For `O=c1[nH]c(=O)c2[nH]c(=O)[nH]c2[nH]1` [uric acid], which “effect on decay of probe signal (transformation of colored probe product into colorless side product)” value (from here on “effect on decay of probe signal”) is on record?
A: The value was “preventing the decay of probe signal”.

Q: How did the “effect on decay of probe signal” value turn out when `O=C1O[C@H]([C@@H](O)CO)C(O)=C1O` [Vitamin C] was run?
A: Its value is “preventing the decay of probe signal”.

Q: For `O=C(O)CC(O)(CC(=O)O)C(=O)O` [citric acid], which “effect on decay of probe signal” value is on record?
A: The value was “preventing the decay of probe signal”.

Q: For `N[C@@H](CCC(=O)N[C@@H](CS)C(=O)NCC(=O)O)C(=O)O` [L-glutathione (reduced)], which “effect on decay of probe signal” value is on record?
A: Its value is “preventing the decay of probe signal”.

Q: With Vitamin E as the compound, how does the “effect on decay of probe signal” value read?
A: Its value is “preventing the decay of probe signal”.

Q: With `Cc1c(C)c2c(c(C)c1O)CCC(C)(C(=O)O)O2` (racemic) [(±)-6-Hydroxy-2,5,7,8-tetramethylchromane-2-carboxylic acid] as the compound, how does the “effect on decay of probe signal” value read?
A: The value was “preventing the decay of probe signal”.

Reference: US12566184B2, “Cell-free biosensors to detect creatinine, creatine, and sarcosine” (Georgia Tech Research Corporation, priority 2021, dated 2026)
